# Biological target: T1, PD-1/PD-L1 (Homo sapiens, UniProt Q9NZQ7)
# T1 construct: made in house; host or cells: HEK293T
# Assay: PD-1/PD-L1 Homogenous Time-Resolved Fluorescence (HTRF) binding assay
# Conditions: PD-L1-His 10 nM, PD-1-Ig 20 nM; value given as range class; read-out: Range or IC50
# Procedure, shortened: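 dPBS + 0.1% BSA + 0.05% Tween-20 buffer; Eu-cryptate anti-Ig 1 nM final, APC anti-His 20 nM final; HTRF read. Counter-assays: PD-1-Ig/PD-L2-His 20 & 5 nM, CD80-His/PD-L1-Ig 100 & 10 nM.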
# T1 sequence (Q9NZQ7 with tags, fused parts or gaps): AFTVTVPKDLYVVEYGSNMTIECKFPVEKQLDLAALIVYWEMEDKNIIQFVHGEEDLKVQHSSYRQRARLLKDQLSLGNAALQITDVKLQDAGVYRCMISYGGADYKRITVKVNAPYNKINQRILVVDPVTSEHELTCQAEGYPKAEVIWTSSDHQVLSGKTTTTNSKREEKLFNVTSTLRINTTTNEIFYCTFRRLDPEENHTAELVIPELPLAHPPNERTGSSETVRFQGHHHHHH
row,SMILES,IC50
1,"N#Cc1cncc(COc2cc(OCc3cccc(-c4cccc(OCCCN5CCCCC5)c4Cl)c3Cl)c(Cl)cc2CN2CCCC[C@H]2C(=O)O)c1 [Example 2045, (S)-1-(5-chloro-2-((5-cyanopyridin-3-yl)methoxy)-4-((2,2′-dichloro-3′-(3-(piperidin-1-yl)propoxy)-[1,1′-biphenyl]-3-yl)methoxy)benzyl)piperidine-2-carboxylic Acid]",0.21 to 10 nM
2,"COC(=O)[C@@H]1C[C@@H](O)CN1CCCOc1cccc(-c2cccc(COc3cc(OCc4cncc(S(C)(=O)=O)c4)c(CN[C@](C)(CO)C(=O)O)cc3Cl)c2C)c1Cl [Example 1068, (R)-2-((5-chloro-4-((2′-chloro-3′-(3-((2S,4R)-4-hydroxy-2-(methoxycarbonyl)pyrrolidin-1-yl)propoxy)-2-methyl-[1,1′-biphenyl]-3-yl)methoxy)-2-((5-(methylsulfonyl)pyridin-3-yl)methoxy)benzyl)amino)-3-hydroxy-2-methylpropanoic Acid]",0.21 to 10 nM
3,"N#Cc1cncc(COc2cc(OCc3cccc(-c4cccc(OCCCN5CC[C@@H](O)C5)c4Cl)c3Cl)c(Cl)cc2CN2CCCC[C@H]2C(=O)O)c1 [Example 2106, (S)-1-(5-chloro-2-((5-cyanopyridin-3-yl)methoxy)-4-((2,2′-dichloro-3′-(3-((R)-3-hydroxypyrrolidin-1-yl)propoxy)-[1,1′-biphenyl]-3-yl)methoxy)benzyl)piperidine-2-carboxylic Acid]",0.21 to 10 nM
4,"Cc1c(COc2cc(OCc3cncc(C#N)c3)c(CN3CCCC[C@H]3C(=O)O)cc2Cl)cccc1-c1cccc(OCCCN2CCOCC2)c1C [Example 2212, (2S)-1-(5-chloro-2-((5-cyanopyridin-3-yl)methoxy)-4-((2,2′-dimethyl-3′-(3-morpholinopropoxy)biphenyl-3-yl)methoxy)benzyl)piperidine-2-carboxylic Acid]",0.21 to 10 nM
5,"Cc1c(COc2cc(OCc3cncc(C#N)c3)c(CN3CCCC[C@H]3C(=O)O)cc2Cl)cccc1-c1cccc(OCCCN[C@@H](Cc2ccncc2)C(=O)O)c1C [Example 2209, (2S)-1-(4-((3′-(3-((S)-1-carboxy-2-(pyridin-4-yl)ethylamino)propoxy)-2,2′-dimethylbiphenyl-3-yl)methoxy)-5-chloro-2-((5-cyanopyridin-3-yl)methoxy)benzyl)piperidine-2-carboxylic Acid]",10 to 100 nM
6,"CCC[C@H](NCc1cc(Cl)c(OCc2cccc(-c3cccc(OCCCN4CC[C@@H](O)C4)c3C)c2C)cc1OCc1cncc(C#N)c1)C(=O)O [Example 4154, (S)-2-((5-chloro-2-((5-cyanopyridin-3-yl)methoxy)-4-((3′-(3-((R)-3-hydroxypyrrolidin-1-yl)propoxy)-2,2′-dimethyl-[1,1′-biphenyl]-3-yl)methoxy)benzyl)amino)pentanoic Acid]",0.21 to 10 nM
7,"Cc1c(COc2cc(OCc3cncc(C#N)c3)c(CN3CCCC[C@H]3C(=O)O)cc2Cl)cccc1-c1cccc(OCCCNC23CC4CC(CC(C4)C2)C3)c1C [Example 2227, (S)-1-(4-((3′-(3-((3s,5s,7s)-adamantan-1-ylamino)propoxy)-2,2′-dimethyl-[1,1′-biphenyl]-3-yl)methoxy)-5-chloro-2-((5-cyanopyridin-3-yl)methoxy)benzyl)piperidine-2-carboxylic Acid]",0.21 to 10 nM
8,"CC(CO)(CO)NCc1cc(Cl)c(OCc2cccc(-c3cccc(OCCCN4CC[C@@H](O)C4)c3Cl)c2Cl)cc1OCc1cc(Cl)ccc1Cl [Example 2112, (R)-2-((5-chloro-4-((2,2′-dichloro-3′-(3-(3-hydroxypyrrolidin-1-yl)propoxy)-[1,1′-biphenyl]-3-yl)methoxy)-2-((2,5-dichlorobenzyl)oxy)benzyl)amino)-2-methylpropane-1,3-diol]",0.21 to 10 nM
9,"CC[C@@H](C(=O)O)N(C)Cc1cc(Cl)c(OCc2cccc(-c3cccc(OCCCN4CC[C@@H](O)C4)c3C)c2C)cc1OCc1cncc(C#N)c1 [Example 4133, (S)-2-((5-chloro-2-((5-cyanopyridin-3-yl)methoxy)-4-((3′-(3-((R)-3-hydroxypyrrolidin-1-yl)propoxy)-2,2′-dimethyl-[1,1′-biphenyl]-3-yl)methoxy)benzyl)(methyl)amino)butanoic Acid]",0.21 to 10 nM
10,"Cc1c(COc2cc(OCc3cncc(C#N)c3)c(CN3CCN(CCO)CC3)cc2Cl)cccc1-c1cccc(OCCCN2CCN(CCO)CC2)c1Cl [Example 2011, 5-((4-chloro-5-((2′-chloro-3′-(3-(4-(2-hydroxyethyl)piperazin-1-yl)propoxy)-2-methyl-[1,1′-biphenyl]-3-yl)methoxy)-2-((4-(2-hydroxyethyl)piperazin-1-yl)methyl)phenoxy)methyl)nicotinonitrile]",0.21 to 10 nM
11,"Cc1c(OCCCN2CC[C@@H](O)C2)cccc1-c1cccc(COc2cc(OCc3cncc(C#N)c3)c(CN3CCCC[C@H]3C(=O)O)cc2Cl)c1Cl [Example 2302, (S)-1-(5-chloro-4-((2-chloro-3′-(3-((R)-3-hydroxypyrrolidin-1-yl)propoxy)-2′-methyl-[1,1′-biphenyl]-3-yl)methoxy)-2-((5-cyanopyridin-3-yl)methoxy)benzyl)piperidine-2-carboxylic Acid]",0.21 to 10 nM

# The next lines start with the values.
row,IC50,SMILES
1,0.21 to 10 nM,"CNC1CCN(CCCOc2cccc(-c3cccc(COc4cc(OCc5cncc(C#N)c5)c(CN5CCCC[C@H]5C(=O)O)cc4Cl)c3C)c2C)CC1 [Example 2269, (2S)-1-(5-chloro-2-((5-cyanopyridin-3-yl)methoxy)-4-((2,2′-dimethyl-3′-(3-(4-(methylamino)piperidin-1-yl)propoxy)biphenyl-3-yl)methoxy)benzyl)piperidine-2-carboxylic Acid]"
2,0.21 to 10 nM,"Cc1c(COc2cc(OCc3cncc(C#N)c3)c(CN[C@](C)(CO)C(=O)O)cc2Cl)cccc1-c1cccc(OCCCN2CCC(O)(C(=O)O)CC2)c1C [Example 1037, (R)-1-(3-((3′-((4-(((2-carboxy-1-hydroxypropan-2-yl)amino)methyl)-2-chloro-5-((5-cyanopyridin-3-yl)methoxy)phenoxy)methyl)-2,2′-dimethyl-[1,1′-biphenyl]-3-yl)oxy)propyl)-4-hydroxypiperidine-4-carboxylic Acid]"
3,0.21 to 10 nM,"Cc1c(COc2cc(OCc3cncc(S(C)(=O)=O)c3)c(CN[C@H](CO)C(=O)O)cc2Cl)cccc1-c1cccc(OCCCN2CC[C@@H](O)C2)c1C [Example 1025, (R)-2-((5-chloro-4-((3′-(3-((R)-3-hydroxypyrrolidin-1-yl)propoxy)-2,2′-dimethyl-[1,1′-biphenyl]-3-yl)methoxy)-2-((5-(methylsulfonyl)pyridin-3-yl)methoxy)benzyl)amino)-3-hydroxypropanoic Acid]"
4,0.21 to 10 nM,Cc1c(COc2cc(OCc3cncc(C#N)c3)c(CN(CCO)CCCO)cc2Cl)cccc1-c1cccc(OCCCN2CCC(F)(F)C2)c1C [Example 4113]
5,0.21 to 10 nM,"Cc1c(COc2cc(OCc3cncc(C#N)c3)c(CNC(C)(CO)CO)cc2Cl)cccc1-c1cccc(OCCc2ccccn2)c1Cl [Example 2081, 5-((4-chloro-5-((2′-chloro-2-methyl-3′-(2-(pyridin-2-yl)ethoxy)-[1,1′-biphenyl]-3-yl)methoxy)-2-(((1,3-dihydroxy-2-methylpropan-2-yl)amino)methyl)phenoxy)methyl)nicotinonitrile]"

# Source: patent US10745382B2 (BRISTOL-MYERS SQUIBB COMPANY, priority 2015, dated 2020)
